Our source for the IC50 values is ChEMBL document CHEMBL1144599, “In vitro antimalarial activity of hyperforin, a prenylated acylphloroglucinol. A structure-activity study” (Bioorg Med Chem Lett, 2007).

The IC50 is the concentration at which inhibition is half-maximal.

One test concerns Plasmodium falciparum. Kind of test: Antiplasmodial activity after 48 hrs against Plasmodium falciparum K1 in human erythrocytes. The class given is functional, organism-based.
A further test has as its system L6. Nature of the test: Cytotoxicity against rat L6 cells after 72 hrs. It is filed as cell-based.
Setting [1] is: Plasmodium falciparum, K1, 48 h.

Molecules are shown by their SMILES. Where a name gives a salt, the structure may show the parent alone.

In the case of `COC1=C(CC=C(C)C)C(=O)[C@@]2(C(=O)C(C)C)C(=O)[C@]1(CC=C(C)C)C[C@H](CC=C(C)C)[C@@]2(C)CCC=C(C)C`, the IC50 with Plasmodium falciparum (setting [1]) was 7.8 µM.
In the case of `CC(C)=CCC[C@]1(C)[C@@H](CC=C(C)C)C[C@@]2(CC=C(C)C)C(=O)[C@]1(C(=O)C(C)C)C(=O)C(CC=C(C)C)=C2OC(=O)c1cccnc1` [HYPERFORINNICOTINATE], the IC50 with L6 (Rattus norvegicus, L6, 72 h) was 23.9 µM; in the test with Plasmodium falciparum (setting [1]), 4.8 µM.
Regarding `CC(C)=CCC[C@]1(C)[C@@H](CC=C(C)C)C[C@@]2(CC=C(C)C)C(=O)[C@]1(C(=O)C(C)C)C(=O)C1=C2OC(C)(C)C=C1` [DEHYDROHYPERFORIN], the concentration for half-maximal inhibition (IC50) in the test with Plasmodium falciparum (setting [1]) was found to be 8.6 µM. In other words, the single-digit micromolar range.
With `CC(C)=CCC[C@]1(C)[C@@H](CC=C(C)C)C[C@]2(CC=C(C)C)C(=O)[C@@](O)(CC=C(C)C)C(=O)[C@@]1(C(=O)C(C)C)C2=O`, the IC50 in the test with L6 (Rattus norvegicus, L6, 72 h) came to 19.7 µM; in the test with Plasmodium falciparum (setting [1]), 0.6 µM.
For `CC(C)CCC[C@]1(C)[C@@H](CCC(C)C)C[C@@]2(CCC(C)C)C(=O)[C@]1(C(=O)C(C)C)C(=O)C(CCC(C)C)=C2O` [OCTAHYDROHYPERFORIN] the same measures were 2.12 µM and 2.7 µM.
The matching figures for `CC(C)=CCC[C@]1(C)[C@@H](CC=C(C)C)C[C@]2(CC=C(C)C)C(=O)C(CC=C(C)C)=C(O)[C@@]1(C(=O)C(C)C)C2=O` [listing 1 of 2 here]: 2.21 µM and 1.5 µM.
Take `COc1cc(C(=O)OC2=C(CC=C(C)C)C(=O)[C@@]3(C(=O)C(C)C)C(=O)[C@]2(CC=C(C)C)C[C@H](CC=C(C)C)[C@@]3(C)CCC=C(C)C)cc(OC)c1OC` [HYPERFORINTRIMETHOXYBENZOATE]: the half-maximal inhibitory concentration (IC50) with Plasmodium falciparum (setting [1]) was over 27 µM.
On the same count and under the same terms, the result for `CC(C)=CCC[C@]1(C)[C@@H](CC=C(C)C)C[C@]2(CC=C(C)C)C(=O)C(Cl)(CC=C(C)C)C(=O)[C@@]1(C(=O)C(C)C)C2=O` (stereo not given in full) reads 6.7 µM.
As for `CC(C)CCC[C@]1(C)[C@@H](CCC(C)C)C[C@@]2(CCC(C)C)C(=O)[C@]1(C(=O)C(C)C)C(=O)C(CCC(C)C)=C2O` [OCTAHYDROHYPERFORIN DICYCLOHEXYLAMMONIUM SALT], the results for the 50% inhibitory concentration (IC50) in the test on L6 (l6) and in the test with Plasmodium falciparum were 3.12 µM and 1.4 µM, respectively.
In the test on Plasmodium falciparum (setting [1]), `CC(=O)C1=C(O)C=C2Oc3c(C(C)=O)c(O)c(C)c(O)c3C2(C)C1=O` (stereo not given) yielded an IC50 of 16.1 µM. In other words, the double-digit micromolar range.
With `CC(C)=CCC[C@]1(C)[C@@H](CC=C(C)C)C[C@]2(CC=C(C)C)C(=O)C(CC=C(C)C)=C(O)[C@@]1(C(=O)C(C)C)C2=O` [listing 2 of 2 here], the half-inhibitory concentration (IC50) in the test with L6 (l6) came to 3.29 µM; with Plasmodium falciparum, 2.1 µM.
On to `CC(C)=CCC[C@]1(C)[C@@H](CC=C(C)C)C[C@]2(CC=C(C)C)C(=O)[C@@]3(CC=C(C)C)O[C@@]2(O)[C@]1(C(=O)C(C)C)C3=O` [HYPERFORINHEMIACETAL], for which the IC50 in the test on L6 (Rattus norvegicus, L6, 72 h) was determined as 16.1 µM; in the test on Plasmodium falciparum (setting [1]), 2 µM.
Regarding `CC(=O)C1=C(O)C=C2Oc3c(C(C)=O)c(O)c(C)c(O)c3[C@@]2(C)C1=O` [(+)-USNIC ACID], the IC50 with Plasmodium falciparum (setting [1]) amounted to 15.3 µM.
Still for that read-out and setting: the result for `CC(C)=CCC[C@]1(C)[C@@H](CC=C(C)C)C[C@]2(CC=C(C)C)C(=O)C(C)(CC=C(C)C)C(=O)[C@@]1(C(=O)C(C)C)C2=O` (stereo not given in full) reads over 27 µM.
On to `CC(C)=C/C=C1/OC(=O)[C@@]2(CC=C(C)C)C[C@H](CC=C(C)C)[C@@](C)(CCC=C(C)C)[C@H](C(=O)C(C)C)C(=O)[C@@]12O`, for which the IC50 in the test on L6 (Rattus norvegicus, L6, 72 h) was 36 µM; in the test with Plasmodium falciparum (setting [1]), 3.8 µM.
For `CC(C)=CCC[C@]1(C)[C@@H](CC=C(C)C)C[C@]23CC(C(C)(C)O)OC2=C(CC=C(C)C)C(=O)[C@@]1(C(=O)C(C)C)C3=O` (stereo not given in full) [FUROHYPERFORIN] the same measures were 16.1 µM and 1.7 µM.
